In PubChem BioAssay (NCI):
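Cells were grown in 96-well plates and exposed to each compound for 48 hours at five concentrations; endpoints were interpolated linearly between bracketing concentrations, or set to the highest concentration if not reached. GI50 = concentration required for 50% inhibition of growth. TGI marks complete inhibition of growth.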

How the values were obtained:
Test in all cases: NCI anticancer screen, dose series, 48 h
[1] = test system: A549 NSCLC
[2] = test system: SNB-75 CNS
[3] = test system: BT-549 breast
[4] = test system: SNB-19 CNS
[5] = test system: HT29 colon
[6] = test system: HL-60(TB) leukemia
[7] = test system: NCI-H522 lung
[8] = test system: HOP-92 NSCLC
[9] = test system: OVCAR-8 ovarian
[10] = test system: MALME-3M melanoma
[11] = test system: A498 renal
[12] = test system: RXF 393 renal
[13] = test system: HCT-116 colon
[14] = test system: SN12C renal
[15] = test system: UACC-257 melanoma
[16] = test system: SF-268 CNS
[17] = test system: SR leukemia
[18] = test system: MDA-MB-231 breast
[19] = test system: DU-145 prostate
[20] = test system: SK-MEL-5 melanoma
[21] = test system: OVCAR-3 ovarian
[22] = test system: TK-10 renal
[23] = test system: ACHN renal
[24] = test system: NCI-H226 lung
[25] = test system: UO-31 renal
[26] = test system: HCT-15 colon
[27] = test system: SK-OV-3 ovarian
[28] = test system: MOLT-4 leukemia
[29] = test system: CCRF-CEM leukemia
[30] = test system: KM12 colon
[31] = test system: HCC-2998 colon
[32] = test system: U251 CNS
[33] = test system: PC-3 prostate
[34] = test system: NCI/ADR-RES ovarian
[35] = test system: CAKI-1 renal
[36] = test system: MDA-MB-435
[37] = test system: T-47D breast
[38] = test system: COLO 205 colon
[39] = test system: 786-0 renal
[40] = test system: UACC-62 melanoma
[41] = test system: SK-MEL-28 melanoma
[42] = test system: MCF7 breast
[43] = test system: IGROV1 ovarian
[44] = test system: RPMI-8226 leukemia
[45] = test system: LOX IMVI melanoma
[46] = test system: M14 melanoma
[47] = test system: K-562 leukemia
[48] = test system: HOP-62 NSCLC
[49] = test system: NCI-H460 lung
[50] = test system: HS 578T breast
[51] = test system: OVCAR-5 ovarian
[52] = test system: OVCAR-4 ovarian
[53] = test system: NCI-H23 lung
[54] = test system: SW-620 colon
[55] = test system: SK-MEL-2 melanoma
[56] = test system: SF-539 CNS
[57] = test system: SF-295 CNS
[58] = test system: EKVX NSCLC

COC(=O)[C@@H](Cc1c[nH]c2ccccc12)NC(=O)/C=C/c1ccccc1
GI50 [1]: 3.91 µM
TGI [1]: > 100 µM
GI50 [2]: 2.42 µM
TGI [2]: > 100 µM
GI50 [3]: 4.1 µM
TGI [3]: 71.8 µM
GI50 [4]: 7.31 µM
TGI [4]: > 100 µM
GI50 [5]: 3.9 µM
TGI [5]: 14.1 µM
GI50 [6]: 2.33 µM
TGI [6]: 5.71 µM
GI50 [7]: 1.81 µM
TGI [7]: 30.5 µM
GI50 [8]: 0.235 µM
TGI [8]: 4.29 µM
GI50 [9]: 3.6 µM
TGI [9]: > 100 µM
GI50 [10]: > 100 µM
TGI [10]: > 100 µM
GI50 [11]: 0.511 µM
TGI [11]: 6.75 µM
GI50 [12]: 1.5 µM
TGI [12]: 4.58 µM
GI50 [13]: 3.36 µM
TGI [13]: > 100 µM
GI50 [14]: 4.49 µM
TGI [14]: > 100 µM
GI50 [15]: 9.03 µM
TGI [15]: > 100 µM
GI50 [16]: 4.52 µM
TGI [16]: > 100 µM
GI50 [17]: 2.98 µM
TGI [17]: 11.6 µM
GI50 [18]: 2.93 µM
TGI [18]: 8.63 µM
GI50 [19]: 4.58 µM
TGI [19]: > 100 µM
GI50 [20]: 3.14 µM
TGI [20]: 13.8 µM
GI50 [21]: 2.83 µM
TGI [21]: 7.78 µM
GI50 [22]: 17.9 µM
TGI [22]: > 100 µM
GI50 [23]: 4.08 µM
TGI [23]: > 100 µM
GI50 [24]: 6.06 µM
TGI [24]: > 100 µM
GI50 [25]: 3.68 µM
TGI [25]: > 100 µM
GI50 [26]: 3.31 µM
TGI [26]: > 100 µM
GI50 [27]: 3.15 µM
TGI [27]: > 100 µM
GI50 [28]: 3.57 µM
TGI [28]: > 100 µM
GI50 [29]: 3.45 µM
TGI [29]: > 100 µM
GI50 [30]: 4.13 µM
TGI [30]: 33.5 µM
GI50 [31]: 2.65 µM
TGI [31]: 8.56 µM
GI50 [32]: 3.16 µM
TGI [32]: 41.6 µM
GI50 [33]: 3.22 µM
TGI [33]: 68.2 µM
GI50 [34]: 2.53 µM
TGI [34]: > 100 µM
GI50 [35]: 3.42 µM
TGI [35]: > 100 µM
GI50 [36]: 0.782 µM
TGI [36]: 3.91 µM
GI50 [37]: 8.41 µM
TGI [37]: > 100 µM
GI50 [38]: 12.4 µM
TGI [38]: 50.3 µM
GI50 [39]: 3.96 µM
TGI [39]: > 100 µM
GI50 [40]: 3.97 µM
TGI [40]: > 100 µM
GI50 [41]: 4.43 µM
TGI [41]: > 100 µM
GI50 [42]: 3.2 µM
TGI [42]: > 100 µM
GI50 [43]: 7.07 µM
TGI [43]: > 100 µM
GI50 [44]: 3.48 µM
TGI [44]: 33.7 µM
GI50 [45]: 3.73 µM
TGI [45]: > 100 µM
GI50 [46]: 3.05 µM
TGI [46]: > 100 µM
GI50 [47]: 2.74 µM
TGI [47]: > 100 µM
GI50 [48]: 3.62 µM
TGI [48]: > 100 µM
GI50 [49]: 3.26 µM
TGI [49]: 15.1 µM
GI50 [50]: 1.81 µM
TGI [50]: 7.88 µM
GI50 [51]: 5.43 µM
TGI [51]: > 100 µM
GI50 [52]: 5.71 µM
TGI [52]: > 100 µM
GI50 [53]: 4.32 µM
TGI [53]: > 100 µM
GI50 [54]: 4.07 µM
TGI [54]: > 100 µM
GI50 [55]: 6.63 µM
TGI [55]: > 100 µM
GI50 [56]: 1.95 µM
TGI [56]: 5.29 µM

C#CCOc1ccc2ncnc(Nc3ccc(NC(=O)CCl)cc3)c2c1
GI50 [1]: 13.4 µM
TGI [1]: 39.7 µM
GI50 [3]: 3.81 µM
TGI [3]: 16.6 µM
GI50 [57]: 10.1 µM
TGI [57]: 24.5 µM
GI50 [4]: 8.43 µM
TGI [4]: 22.3 µM
GI50 [5]: 4.22 µM
TGI [5]: 16 µM
GI50 [6]: 5.91 µM
TGI [6]: 25.2 µM
GI50 [7]: 2 µM
TGI [7]: 4.27 µM
GI50 [8]: 12.2 µM
TGI [8]: 27.9 µM
GI50 [9]: 5.15 µM
TGI [9]: 63.4 µM
GI50 [10]: 4.58 µM
TGI [10]: 18.1 µM
GI50 [11]: 10.6 µM
TGI [11]: 24 µM
GI50 [12]: 4.64 µM
TGI [12]: 17.9 µM
GI50 [13]: 3.68 µM
TGI [13]: 14.9 µM
GI50 [14]: 6.4 µM
TGI [14]: 36.9 µM
GI50 [15]: 15.5 µM
TGI [15]: 38.4 µM
GI50 [16]: 4.67 µM
TGI [16]: 22.3 µM
GI50 [17]: 2.69 µM
TGI [17]: 15 µM
GI50 [18]: 4.51 µM
TGI [18]: 20 µM
GI50 [19]: 11.7 µM
TGI [19]: 24 µM
GI50 [20]: 3.87 µM
TGI [20]: 15.5 µM
GI50 [21]: 4.68 µM
TGI [21]: 17.2 µM
GI50 [22]: 13.7 µM
TGI [22]: 42.7 µM
GI50 [58]: 10.9 µM
TGI [58]: 33.2 µM
GI50 [23]: 11 µM
TGI [23]: 23.3 µM
GI50 [24]: 17.8 µM
TGI [24]: 68.6 µM
GI50 [25]: 8.45 µM
TGI [25]: 22.2 µM
GI50 [26]: 2.96 µM
TGI [26]: 19.2 µM
GI50 [27]: 12.5 µM
TGI [27]: 38.6 µM
GI50 [28]: 3.19 µM
TGI [28]: 17.7 µM
GI50 [29]: 2.38 µM
TGI [29]: 12.2 µM
GI50 [30]: 8.54 µM
TGI [30]: 23.7 µM
GI50 [31]: 13.7 µM
TGI [31]: 27.1 µM
GI50 [32]: 2.08 µM
TGI [32]: 5.99 µM
GI50 [33]: 8.1 µM
TGI [33]: 27.6 µM
GI50 [34]: 3.76 µM
TGI [34]: 36.4 µM
GI50 [35]: 11.3 µM
TGI [35]: 23.6 µM
GI50 [36]: 2.67 µM
TGI [36]: > 100 µM
GI50 [37]: 8.4 µM
TGI [37]: 31.9 µM
GI50 [38]: 13.8 µM
TGI [38]: 31.5 µM
GI50 [39]: 4.36 µM
TGI [39]: 16 µM
GI50 [40]: 8.97 µM
TGI [40]: 27.4 µM
GI50 [41]: 14.5 µM
TGI [41]: 79.6 µM
GI50 [42]: 3.61 µM
TGI [42]: 15.9 µM
GI50 [43]: 3.15 µM
TGI [43]: 10.9 µM
GI50 [44]: 3.88 µM
TGI [44]: 18.1 µM
GI50 [45]: 1.5 µM
TGI [45]: 3.43 µM
GI50 [46]: 9.4 µM
TGI [46]: 27.7 µM
GI50 [48]: 13.8 µM
TGI [48]: 37.1 µM
GI50 [49]: 10.6 µM
TGI [49]: 30.1 µM
GI50 [50]: 5.61 µM
TGI [50]: 61.7 µM
GI50 [51]: 16.8 µM
TGI [51]: 44.7 µM
GI50 [52]: 11.9 µM
TGI [52]: 39.2 µM
GI50 [53]: 3.85 µM
TGI [53]: 18.4 µM
GI50 [54]: 3.48 µM
TGI [54]: 13.3 µM
GI50 [55]: 12.6 µM
TGI [55]: 57.3 µM
GI50 [56]: 2.89 µM
TGI [56]: 10.6 µM
